Measurements published in patent publication US20190000850A1, “COMBINATION CANCER THERAPY” (The Regents of the University of California, priority 2015, published 2019).

Key:
Jurkat cells [1] = assay: dGTP/DNA-G biosynthesis with [^13C6]glucose and [^15N5]dG labeling; format: cell-based
Protocol: Another approach to study dGTP/DNA-G biosynthetic pathways is through anticancer therapy Forodesine (BCX-1777). The precursor for DNA-G, dGTP, can be produced from glucose via the de novo pathway and from salvage of extracellular dG either as nucleobase and/or intact nucleoside (FIG. 42A). […] Jurkat cells were labeled for 18 h in the following conditions: untreated, PNP inhibitor (BCX-1777) and DI-82, a specific dCK inhibitor. The labeled media contained […] [U-^13C6]glucose to represent the de novo contribution and 5 μM [^15N5]dG to represent salvage pathways. At the end of the incubation time, [^15N5]dG decreased nearly three orders of magnitude in the culture media from the untreated Jurkat cells, reflecting the high PNP activity in these leukemia cells (FIG. 42B). In contrast, the culture media from BCX-1777 treated cells contained 1.8 μM [^15N5]dG, indicative of reduced dG catabolism.
(§1) Cells were transferred into RPMI-1640 without glucose and supplemented with 10% dialyzed FBS (Gibco) containing any of the following labeled substrates (Cambridge Isotopes): precursors for de novo [U-^13C6]glucose (Sigma-Aldrich) at 11 mM; precursors for purine salvage [U-^13C10,^15N5]dA (Cambridge Isotopes), [^15N5]dA (Cambridge Isotopes), [^15N5]dG (Cambridge Isotopes), [U-^13C5,^15N4]Hx (Cambridge Isotopes) at 5 μM or as indicated in the text; and precursors for pyrimidine salvage: [U-^13C9,^15N3]dC (Silantes) and [U-^13C10,^15N2]dT (Cambridge Isotopes) at 5 μM. The cells were incubated for 18 h or as indicated in the text before samples collection and processing.
(§2) Culture medium was collected 20 μL at the indicated time points. Stock solutions (10 mM) of [U-^13C10,^15N5]dA, and [^15N3]dC (Cambridge Isotope Laboratories) were prepared individually in dimethyl sulfoxide (DMSO), and stored at −20° C. before use as internal standards. The internal standards were diluted to 20 nM in methanol to generate internal standard solution. Calibration standards were prepared by spiking working stock solutions of [U-^13C10,^15N5]dA and [U-^13C9,^15N3]dC blank media to give concentrations in the 10 nM-10 μM range. Each 20 μL calibration standard sample was mixed with 60 μL of internal standard solution, mixed (30 s) and centrifuged (15,000 g, 10 min, 4° C.) and 60 μL of supernatant were transferred into a clean mass spec vial for LC-MS/MS-MRM analysis. Media samples were processed similarly and in parallel to the calibration standard samples.
Cells were collected into microcentrifuge tube and centrifuged (450×g, 4 min, 4° C.). The supernatant was carefully aspirated. The cells were washed twice by the addition of 1 mL of cold PBS and centrifugation (450×g, 4 min 4° C.). PBS washes were aspirated. […]

[2] = cited from earlier work
leukemia cell growth = assay: IC50 (cytotoxicity assay) of RNR inhibitors, Table 1; format: cell-based
Protocol: Cells were plated in a 384-well plate (1,000 cells/well for suspension cell lines and 500 cells/well for adherent cell lines in 30 μL). For suspension cell lines, the plate was incubated in 37° C. for 1 h to let the cells settle. For adherent cell lines, the plate was incubated overnight to allow the cells to seed. During incubation, drugs were diluted to desired concentration by serial dilution, vehicle condition was created by adding equivalent amount of DMSO. After incubation, 10 μL of diluted drugs were added to each well, and incubated for 72 h. After incubation, Cell TiterGlo reagent was added to each well according to manufacturer's instructions (Promega, CellTiter-Glo® Luminescent Cell Viability Assay). The plates were shaken for 2 min and incubated in dark for 8 min. Luminescence readings were obtained with luminometer (Molecular devices, SpectraMax).

CCRF-CEM T-ALL cells = assay: EdU pulse assay of cell cycle progression after release from G1 arrest; format: cell-based; conditions: synchronized CEM cells released from G1
Protocol: Following release from G1, cells progress to early, mid and late S phase (defined as S1, S2 and S3, respectively) and G2/M. By 18 h following release in drug-free media, 42.5% of cells progressed to S3. […] Thus, dCK represents a resistance mechanism to ATR inhibition.
Cells were treated with a CDK4/6 inhibitor, PD-0332991 (Selleckchem) for 18 h to arrest in G1 phase. Subsequently, cells were washed and released into fresh media containing 10% FBS to monitor the progression of synchronized cells throughout the cell cycle by flow cytometry analysis.
For measuring cell cycle progression of synchronous population of cells, cells were first arrested in G1 phase, then washed and released in treated media. Before collecting and fixing cells at various time points, cells were pulse-labeled with 10 μM EdU for 1 h, and then click-labeled with azide-Alexa Fluor 647 (Invitrogen; Click-iT EdU Flow cytometry kit) according to manufacturer's protocol. Total DNA content was assessed by staining with FxCycle-Violet (Invitrogen) at 1 μg/mL final concentration in PBS containing 2% FBS.

[3] = Solubility study in phosphate buffer solution; format: physicochemical; conditions: aqueous buffer
[4] = tested on: p185^BCR-ABLArf^−/− pre-B cells; assay: dCTP pool and DNA-C measurement with [U-^13C9,^15N3]dC and [U-^13C6]glucose; format: cell-based, mouse; conditions: 3, 6, 9 and 12 h treatment
Excerpt: Therefore, p185^BCR-ABLArf^−/− pre-B cells were labeled with [U-^13C9,^15N3]dC and [U-^13C6]glucose to measure the contribution of salvage pathway via dCK and de novo pathway via RNR, respectively.

Jurkat cells [5] = assay: dATP/DNA-A biosynthesis with [^13C6]glucose and [^15N5]dA labeling; format: cell-based
Protocol: The precursor for DNA-A, dATP, can be produced from glucose via the de novo pathway and from salvage of extracellular dA either as nucleobase and/or intact nucleoside (FIG. 41A). […] Pharmacological perturbations were used to investigate the contributions of each dA salvage pathway (FIG. 41A). Jurkat cells were labeled for 18 h in the following conditions: untreated, ADA inhibitor Pentostatin (dCF) and DI-82, a specific dCK inhibitor. The labeled media contained […] [U-^13C6]glucose to represent the de novo contribution and 5 μM [^15N5]dA to represent salvage pathways. At the end of the incubation time, [^15N5]dA was undetectable in the culture media from the untreated Jurkat cells, reflecting the high ADA activity in these leukemia cells (FIG. 41B). In contrast, the culture media from dCF treated cells contained 1.5 μM [^15N5]dA, indicative of reduced dA catabolism.
as §1, §2
Cells were collected into microcentrifuge tube and centrifuged (450×g, 4 min, 4° C.). The supernatant was carefully aspirated. The cells were washed twice by the addition of 1 mL of cold PBS and centrifugation (450×g, 4 min 4° C.). PBS washes were aspirated. Thereafter, cells were lysed in 40 μL of 70% methanol/water (v/v), vortexed (30 s) and incubated on ice for 10 min. […]

CEM cells = assay: Mass spectrometric assay of de novo (RNR) and salvage (dCK) contribution to dCTP and DNA-C; format: cell-based; conditions: G1 released CEM cells
Protocol: To analyze the differential utilization of de novo and nucleotide biosynthetic salvage pathways, cultured cells were incubated with stable isotope labeled DNA precursors. […] Extracted dNTP and DNA were analyzed in a triple quadrupole mass spectrometer (QQQ) using multiple reaction monitoring (MRM). The first (Q1) and third (Q3) quadrupoles function as mass filters while the second (Q2) quadrupole serves as a collision chamber. […] In Q2, the glycosidic bond of the selected dC is cleaved, releasing a protonated nucleobase (NB) fragment and a neutral deoxyribose (dR) molecule. The m/z specific NB fragments from dC is separated in Q3 and detected to generate ion chromatograms. […] Each identifier corresponded to a specific biosynthetic pathway and is defined as [x;y], where “x” is the number of heavy isotope-labeled atoms in NB and “y” is the number of heavy isotope atoms in dR. […] According to current biochemical maps of nucleotide metabolism, the [7;5] identifier can only arise from salvaging [U-^13C9,^15N3]dC into newly synthesized DNA. In contrast, a dC with a [0,5] identifier is a product of the de novo pathway. The ratio of the peak areas in the ion chromatograms of salvage [7;5] and de novo [0;5] identifiers describes the relative contributions of the two biosynthetic routes to the dCTP pool used for DNA replication.
Genomic DNA was extracted using the Quick-gDNA MiniPrep kit (Zymo Research, D3021) and hydrolyzed to nucleosides using the DNA Degradase Plus kit (Zymo Research, E2021) following manufacturer-supplied instructions. In the final step of DNA extraction, 50 μL of water was used to elute the DNA. A nuclease premix solution was prepared by mixing 10× buffer, DNA degradase Plus™ and water in the ratio of 2.5/1/1.5 (v/v/v). DNA hydrolysis reaction was prepared in mass spec vials by mixing 5 μL of the nuclease premix solution (5 U of enzyme) and 20 μL of eluted genomic DNA, the total volume becomes 25 μL. The samples were tapped and flicked downward prior to overnight before incubation at 37° C.
Cells were collected into microcentrifuge tube and centrifuged (450×g, 4 min, 4° C.). The supernatant was carefully aspirated. The cells were washed twice by the addition of 1 mL of cold PBS and centrifugation (450×g, 4 min 4° C.). PBS washes were aspirated. Thereafter, cells were lysed in 40 μL of 70% methanol/water (v/v), vortexed (30 s) and incubated on ice for 10 min. Then 40 μL of chloroform (Fisher) was added, vortexed (30 s) and incubated on ice for another 10 min. The samples were then centrifuged at max speed for 10 min at 4° C. Finally, the supernatant was transferred (≈25 μL) into a mass spec vial.
For genomic DNA and media analysis, an aliquot of DNA hydrolysis or media samples (20 μL) was injected directly onto a porous graphitic carbon column (Thermo Fisher Scientific Hypercarb, 100×2.1 mm, 5 μm particle size) equilibrated in solvent A (water/acetonitrile/formic acid, 95/5/0.2, v/v/v) and eluted (200 μL/min) with an increasing concentration of solvent B (acetonitrile/water/formic acid, 90/10/0.2, v/v/v): min/% B/flow rate (μL/min); 0/0/200, 5/0/200, 10/15/200, 20/15/200, 21/40/200, 25/50/200, 26/100/700, 30/100/700, 3I/O/700, 34/0/700, 35/0/200).

Jurkat cells [6] = assay: Cell cycle histograms (DNA content), 24 h treatment; format: cell-based; conditions: dCF with 5 μM dA
Protocol: Cells were plated at the density of 0.5 million cells per ml per well in respective media/treatment. After 24 h incubation, cells were harvested and washed with PBS twice before staining with 0.5 ml of propidium iodide (Calbiochem, 1 μg/ml) solution containing Ribonuclease A and 0.3% Triton-X 100. The samples were protected from light before acquisition by flow cytometry.

ATM = ATM (Homo sapiens, UniProt Q13315); conditions: cited from earlier work
ATR = ATR (Homo sapiens, UniProt Q13535); conditions: read-out: IC50 against primary target (ATR); cited from earlier work
Chain of ATR (Q13535 whole entry): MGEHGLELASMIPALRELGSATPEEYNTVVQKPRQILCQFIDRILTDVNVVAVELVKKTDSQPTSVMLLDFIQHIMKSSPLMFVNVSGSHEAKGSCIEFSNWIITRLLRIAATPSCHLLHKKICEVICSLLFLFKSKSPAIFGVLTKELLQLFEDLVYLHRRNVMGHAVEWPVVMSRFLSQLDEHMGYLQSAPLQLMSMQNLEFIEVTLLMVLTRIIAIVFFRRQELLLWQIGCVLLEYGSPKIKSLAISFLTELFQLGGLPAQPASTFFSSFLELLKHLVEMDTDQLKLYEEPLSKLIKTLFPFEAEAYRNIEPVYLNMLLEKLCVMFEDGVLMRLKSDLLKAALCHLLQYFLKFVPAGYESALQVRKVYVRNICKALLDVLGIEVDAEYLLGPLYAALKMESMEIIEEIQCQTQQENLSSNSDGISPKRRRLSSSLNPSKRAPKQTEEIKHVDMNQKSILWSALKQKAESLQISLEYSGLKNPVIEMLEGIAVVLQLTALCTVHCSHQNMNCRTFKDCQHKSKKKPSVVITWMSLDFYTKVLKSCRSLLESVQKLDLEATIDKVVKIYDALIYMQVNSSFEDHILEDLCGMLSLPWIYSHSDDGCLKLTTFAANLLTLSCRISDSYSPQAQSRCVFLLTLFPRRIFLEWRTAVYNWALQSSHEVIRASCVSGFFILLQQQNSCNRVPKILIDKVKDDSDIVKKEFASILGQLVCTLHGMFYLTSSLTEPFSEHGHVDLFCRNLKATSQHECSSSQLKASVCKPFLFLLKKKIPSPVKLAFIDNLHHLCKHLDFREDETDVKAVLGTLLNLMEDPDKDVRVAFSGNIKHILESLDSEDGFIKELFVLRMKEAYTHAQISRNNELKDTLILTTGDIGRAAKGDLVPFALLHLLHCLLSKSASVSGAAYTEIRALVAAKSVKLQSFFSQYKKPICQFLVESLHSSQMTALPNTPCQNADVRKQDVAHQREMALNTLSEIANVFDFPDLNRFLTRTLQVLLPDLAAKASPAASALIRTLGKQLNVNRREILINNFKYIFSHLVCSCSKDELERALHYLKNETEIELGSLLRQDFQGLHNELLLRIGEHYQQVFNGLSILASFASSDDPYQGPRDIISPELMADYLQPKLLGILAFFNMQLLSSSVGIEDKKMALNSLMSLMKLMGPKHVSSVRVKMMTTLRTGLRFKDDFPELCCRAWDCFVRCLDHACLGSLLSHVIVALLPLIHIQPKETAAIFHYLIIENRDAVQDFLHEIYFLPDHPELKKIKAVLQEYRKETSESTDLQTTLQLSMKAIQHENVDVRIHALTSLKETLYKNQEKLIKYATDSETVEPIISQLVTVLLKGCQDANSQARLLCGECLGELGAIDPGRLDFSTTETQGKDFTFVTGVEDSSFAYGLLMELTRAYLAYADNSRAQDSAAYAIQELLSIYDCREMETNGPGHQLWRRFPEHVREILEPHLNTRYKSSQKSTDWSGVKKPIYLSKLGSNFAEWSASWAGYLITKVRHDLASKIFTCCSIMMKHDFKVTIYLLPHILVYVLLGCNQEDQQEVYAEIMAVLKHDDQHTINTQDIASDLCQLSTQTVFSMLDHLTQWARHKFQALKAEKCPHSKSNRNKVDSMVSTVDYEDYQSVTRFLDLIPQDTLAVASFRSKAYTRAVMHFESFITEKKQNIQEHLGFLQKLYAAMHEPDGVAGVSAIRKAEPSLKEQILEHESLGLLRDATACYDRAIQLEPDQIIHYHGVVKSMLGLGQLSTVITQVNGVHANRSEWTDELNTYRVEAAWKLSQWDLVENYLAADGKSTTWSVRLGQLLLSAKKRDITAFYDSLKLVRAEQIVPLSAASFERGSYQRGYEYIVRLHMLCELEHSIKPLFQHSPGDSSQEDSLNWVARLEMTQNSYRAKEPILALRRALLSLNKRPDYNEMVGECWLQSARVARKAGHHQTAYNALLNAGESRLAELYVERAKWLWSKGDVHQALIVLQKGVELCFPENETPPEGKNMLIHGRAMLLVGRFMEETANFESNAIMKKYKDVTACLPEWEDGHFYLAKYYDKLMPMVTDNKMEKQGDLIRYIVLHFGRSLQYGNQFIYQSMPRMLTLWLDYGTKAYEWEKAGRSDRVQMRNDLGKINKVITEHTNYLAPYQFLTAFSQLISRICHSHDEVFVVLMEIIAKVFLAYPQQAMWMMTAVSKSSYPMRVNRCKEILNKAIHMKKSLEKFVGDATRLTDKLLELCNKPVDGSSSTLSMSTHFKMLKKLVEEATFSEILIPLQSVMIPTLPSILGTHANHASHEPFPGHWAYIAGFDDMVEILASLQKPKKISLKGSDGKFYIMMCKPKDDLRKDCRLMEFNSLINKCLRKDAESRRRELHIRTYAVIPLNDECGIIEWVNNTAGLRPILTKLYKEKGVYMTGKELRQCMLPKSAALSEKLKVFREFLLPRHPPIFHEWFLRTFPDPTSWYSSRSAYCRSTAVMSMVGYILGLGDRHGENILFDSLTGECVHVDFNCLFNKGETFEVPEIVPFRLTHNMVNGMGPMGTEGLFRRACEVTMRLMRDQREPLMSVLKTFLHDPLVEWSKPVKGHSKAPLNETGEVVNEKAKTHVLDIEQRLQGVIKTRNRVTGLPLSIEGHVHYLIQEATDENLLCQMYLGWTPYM
Chain of ATR (Q8WXE1 whole entry partner): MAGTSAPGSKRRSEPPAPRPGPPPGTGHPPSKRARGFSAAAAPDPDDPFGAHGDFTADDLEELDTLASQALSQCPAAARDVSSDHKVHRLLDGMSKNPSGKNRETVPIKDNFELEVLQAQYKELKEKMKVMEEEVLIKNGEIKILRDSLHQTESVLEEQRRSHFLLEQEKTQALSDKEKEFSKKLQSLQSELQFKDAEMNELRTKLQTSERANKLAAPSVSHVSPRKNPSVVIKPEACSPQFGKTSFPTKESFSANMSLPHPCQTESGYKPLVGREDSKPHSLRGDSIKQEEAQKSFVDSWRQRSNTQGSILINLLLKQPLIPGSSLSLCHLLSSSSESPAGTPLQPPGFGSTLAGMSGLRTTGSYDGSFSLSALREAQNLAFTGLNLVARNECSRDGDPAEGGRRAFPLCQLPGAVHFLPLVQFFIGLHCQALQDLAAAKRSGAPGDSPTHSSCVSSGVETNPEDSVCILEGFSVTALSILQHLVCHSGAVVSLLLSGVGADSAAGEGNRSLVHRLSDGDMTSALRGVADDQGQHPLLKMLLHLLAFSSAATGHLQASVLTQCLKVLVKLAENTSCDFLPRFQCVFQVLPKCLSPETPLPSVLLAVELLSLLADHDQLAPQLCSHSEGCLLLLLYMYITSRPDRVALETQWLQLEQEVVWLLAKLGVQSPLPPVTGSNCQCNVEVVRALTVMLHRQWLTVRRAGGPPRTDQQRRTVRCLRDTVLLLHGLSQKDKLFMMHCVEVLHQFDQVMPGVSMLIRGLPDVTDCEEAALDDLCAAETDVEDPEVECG

Chk1 = molecular target: T1, Chk1 (Homo sapiens, UniProt O14757); conditions: read-out: IC50 against primary target (Chk1); cited from earlier work
T1 sequence (O14757 1-476): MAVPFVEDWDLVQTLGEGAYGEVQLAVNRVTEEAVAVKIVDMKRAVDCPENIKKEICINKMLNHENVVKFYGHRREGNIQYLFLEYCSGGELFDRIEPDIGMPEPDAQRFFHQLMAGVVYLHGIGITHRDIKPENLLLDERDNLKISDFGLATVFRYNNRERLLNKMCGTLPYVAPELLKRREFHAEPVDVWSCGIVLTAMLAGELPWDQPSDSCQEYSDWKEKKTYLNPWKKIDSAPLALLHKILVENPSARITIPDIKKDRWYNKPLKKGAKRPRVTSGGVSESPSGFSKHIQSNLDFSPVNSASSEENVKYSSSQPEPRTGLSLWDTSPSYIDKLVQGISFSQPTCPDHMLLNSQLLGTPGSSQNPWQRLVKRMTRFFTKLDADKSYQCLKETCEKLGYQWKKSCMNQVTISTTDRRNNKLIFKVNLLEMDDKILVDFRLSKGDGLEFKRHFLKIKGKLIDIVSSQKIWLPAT

## O=c1[nH]cnc2c([C@@H]3N[C@H](CO)[C@@H](O)[C@H]3O)c[nH]c12 [BCX-1777, Forodesine]
Jurkat cells [1]; 18 h, 5 nM BCX-1777, 5 μM [^15N5]dG added
  [^15N5]dG in the culture media at the end of incubation: 1.8 µM
Jurkat cells [1]; 18 h, BCX-1777
  increase in dG salvage into dGTP: over 300 fold
Jurkat cells [1]; 18 h, PNP inhibition by BCX-1777
  increase of dGTP pools compared to untreated cells: 6 fold

## N[C@@H]1CCCN(c2c(Br)cnc3[nH]cc(NC(=O)C4CC4)c23)C1 [GDC0575]
[2]
  oral bioavailability: orally bioavailable

## NC(=O)NO [Hydroxyurea]
Leukemia cell growth; 3-AP: cell type independent
  IC50: 39 µM

## Cc1cn([C@H]2C[C@H](O)[C@@H](CO)O2)c(=O)[nH]c1=O [Thymidine]
Leukemia cell growth; cell type dependent, range printed with two units (μM to mM)
  IC50: 50 to 5000 µM

## CCN1CCC(Oc2c(C#N)ncc3[nH]c4ncccc4c23)CC1 [GDC0425]
[2]
  oral bioavailability: orally bioavailable

## COc1ccc(-c2nc(C(C)Sc3nc(N)cc(N)n3)c(C)s2)cc1OCCNS(C)(=O)=O (centres unmarked) [DI-82, N-(2-(5-(4-(1-((4,6-diaminopyrimidin-2-yl)thio)ethyl)-5-methylthiazol-2-yl)-2-methoxyphenoxy)ethyl)methanesulfonamide]
Jurkat cells [1]; 1 μM DI-82 added to BCX-1777
  effect on the increased dGTP pool level caused by BCX-1777: completely reversed
CCRF-CEM T-ALL cells
  effect on cell cycle progression: does not significantly impair cell cycle progression
[3]
  solubility: < 300 µg/mL
[4]
  dCTP pool: nearly depleted
Jurkat cells [5]; 1 μM DI-82 added to dCF
  effect on the increased dATP pool level caused by dCF: completely reversed
CEM cells
  contribution of dCK to dCTP and DNA-C: completely abrogates

## OC[C@H]1O[C@@H](n2cnc3c2NC=NC[C@H]3O)C[C@@H]1O [dCF, Pentostatin]
Jurkat cells [6]
  reduction of the proportion of cells in G2/M: more than 2 fold
  reduction of the proportion of cells in S-phase: 3 fold
Jurkat cells [5]; 18 h, 10 μM dCF, 5 μM [^15N5]dA added
  [^15N5]dA in the culture media at the end of incubation: 1.5 µM
Jurkat cells [5]; 18 h, ADA inhibition by dCF
  increase of dATP pools compared to untreated cells: 6 fold
Jurkat cells [5]; 18 h, dCF
  increase in dA salvage into dATP: over 190 fold

## Cc1occc(=O)c1[O-].Cc1occc(=O)c1[O-].Cc1occc(=O)c1[O-].[Ga+3] [Gallium Maltolate]
Leukemia cell growth; 3-AP: cell type independent
  IC50: 30 µM

## CS(=O)(=O)c1ccc(-c2cnc(N)c(C(=O)Nc3ccccc3)n2)cc1 [VE-821]
ATM
  IC50: 34 µM
ATR
  IC50: 0.019 µM

## N#Cc1cc2c(cn1)[nH]c1ncc(-c3ccc(CN4CCCCC4)cc3)cc12 [GNE-900]
Chk1
  IC50: 0.001 µM

## C[C@@H]1COCCN1c1cc(C2([S@](C)(=N)=O)CC2)nc(-c2cc[nH]c3nccc2-3)n1 [AZD6738]
[2]
  oral bioavailability: bioavailable)

## Cn1c(=O)n(-c2ccc(C(C)(C)C#N)cc2)c2c3cc(-c4cnc5ccccc5c4)ccc3ncc21 [NVP-BEZ235]
ATR
  IC50: 0.021 µM

## COc1cc(Nc2cnc(C#N)c(O[C@H](C)CN(C)C)n2)ncc1-c1cnn(C)c1 [CCT244747]
Chk1
  IC50: 0.029 to 0.17 µM
[2]
  oral bioavailability: bioavailable)
